Results as given in patent US8236523B2, “Camp reporters and high throughput assays” (The Johns Hopkins University, priority 2004, dated 2012).

Experiments:
Assay type in all cases: cell-based
cAMP [1] = test: 96-well live cell plate reading of HEK293 cells expressing ICUE3; details: 1 μM ISO, 50 μM FSK
Procedure: Plate reading used a 420DF20 excitation filter and two emission filters (470DF40 for cyan and 535DF25 for yellow). A baseline was established in three cycles, each consisting of a full plate reading of yellow intensity, followed by a reading of cyan intensity. Cells were then treated with isoproterenol (ISO; Aldrich), forskolin (Calbiochem), H89, propranolol, and 3-isobutyl-1-methylxanthine (IBMX) as indicated. Readings were taken in six or twenty additional cycles. Each cycle lasted 60 to 145 sec. Baseline FRET ratios were calculated as the average ratio of yellow/cyan for each well before the addition of drug. FRET change was calculated as the percent increase of FRET ratio over baseline for each well during a given cycle. The FRET changes of all wells having undergone the same drug treatment were then averaged within each cycle, and that cycle was correlated with time.
Live cell plate reading. HEK293 cells were transfected with cDNA encoding ICUE reporters using calcium phosphate at 40% confluency and allowed to grow for 40 hours. Cells were then trypsinized and plated in a Costar 3603 96-well assay plate (Coming) at a density of 150,000 cells per well. After incubation for another 24 hours, cells were washed once with HBSS and left in 150 μl HBSS at 20-25° C. Fluorescence reading was taken on a FLUOstar OPTIMA fluorescence microplate reader (BMG Labtechnologies Inc.) using a 420DF20 excitation filter and two emission filters (470DF40 for cyan and […] for yellow). A baseline was established in three cycles, each consisting of a full plate reading of yellow intensity, followed by a reading of cyan intensity. Each cycle lasted between 64 and 145 seconds. Readings were taken in additional cycles. FRET change was calculated as the percent increase of emission ratios (cyan-to-yellow) over baseline for each well during a given cycle. To assess the efficacy of the assay, several statistical parameters were calculated, including Z factor, coefficient of variation, and signal-to-noise ratio (Zhang et al., J. Biomol. Screen. 4, 67-73, 1999).

cAMP [2] = test: High throughput 96-well plate assay using ICUE2 stable HEK293 cells
Procedure: HEK293 cells which stably express ICUE2 (“ICUE2 stable HEK293 cells”) were grown to confluency in 10 cm dishes in DMEM, 10% FBS, 1% penicillin/streptomycin, and 250 μg/ml G418. HEK-293 cells were transfected with cDNA encoding ICUE2 using calcium phosphate at 40% confluency and allowed to grow for 40 hours. Cells were removed from the dish using 0.05% trypsin, spun down, and replaced with fresh media. ICUE2 stable HEK293 cells were counted on a hemocytometer using trypan blue stain. One hundred fifty thousand (150,000) cells were plated per well on a 96-well clear bottom assay plate in a total of 0.2 ml of media per […] and allowed to double once. Media was removed, cells were washed with Hanks buffered salt solution (HBSS) and then covered with 0.05 ml of HBSS per well. In a separate sterile plate, appropriate drugs were added to each well containing HBSS for a total volume of 0.05 ml. […] A baseline was established in three cycles, each consisting of a full plate reading of yellow intensity, followed by a reading of cyan intensity. Cells were then treated with isoproterenol (ISO; […] Readings were taken in six or twenty additional cycles. […] Baseline FRET ratios were calculated as the average ratio of yellow/cyan for each well before the addition of drug. FRET change was calculated as the percent increase of FRET ratio over baseline for each well during a given cycle. The FRET changes of all wells having undergone the same drug treatment were then averaged within each cycle, and that cycle was correlated with time.

cAMP [3] = test: Dual-emission ratio (FRET) imaging of Epac-based cAMP reporters (ICUE1 and targeted fusions) in HEK-293 cells; details: HEK293 cells expressing ICUE1, 10 μM ISO, 50 μM FSK
Procedure: Cell Culture. […] Cells were then transfected with FuGENE-6 transfection reagent (Roche) or calcium phosphate and allowed to grow for 12-24 hours before imaging.
Imaging. Cells were washed twice with Hanks' balanced salt solution buffer after 12- to 24-h incubation at 37° C. culture medium. Cells were maintained in buffer in the dark at room temperature with addition of isoproterenol (Aldrich), forskolin (Calbiochem), Prostaglandin E1 (PGE1) (Sigma), and 8-(4-chloro-phenylthio)-2′-O-methyl adenosine 3′,5′-monophosphate (8-pCPT-2′-O-Me-cAMP) (Axxora Biolog) as indicated. Cells were also treated with P-(4,5-dimethoxy-2-nitrobenzyl) adenosine 3′,5′-monophosphate (DMNB-cAMP) (Molecular Probe).
Cells were imaged on a Zeiss Axiovert 200M microscope with a cooled charge-coupled device camera MicroMAX BFT512 (Roper Scientific) controlled by METAFLUOR 6.2 software (Universal Imaging). Dual-emission ratio imaging used a 420DF20 excitation filter, a 450DRLP dichroic mirror and two emission filters (475DF40 for ECFP, 535DF25 for citrine) alternated by a filter changer Lambda 10-2 (Sutter Instruments). Exposure time was 100-500 ms and images were taken every 8-30 s. Fluorescent images were background-corrected by subtracting autofluorescence intensities of untransfected cells (or background with no cells) from the emission intensities of fluorescent cells expressing reporters. The ratios of cyan to yellow emissions were then calculated at different time points and normalized by dividing all ratios by the emission ratio just prior to stimulation therefore setting the basal emission ratio to 1.

## CC(C)NCC(O)c1ccc(O)c(O)c1 (stereo not shown) [isoproterenol]
cAMP [1]
  character of ICUE3 response (in words): transient responses
cAMP [1]; HEK293 cells expressing ICUE3, n=7
  maximal response / emission ratio change: 8.10%±1.4%
cAMP [2]; 1 μM ISO, 100 μM IBMX, 50 μM FSK
  character of ICUE2 response (in words): transient responses
cAMP [2]; cycle 1 (1 cycle = 60 seconds), 1 μM Iso, 50 μM Fsk, 10 μM H89, 100 μM IBMX
  Average percent FRET response ± standard deviation, cycle 1: 8.22% ± 5.97%
cAMP [2]; cycle 2 (1 cycle = 60 seconds), 1 μM Iso, 50 μM Fsk, 10 μM H89, 100 μM IBMX
  Average percent FRET response ± standard deviation, cycle 2: 20.2% ± 1.69%
cAMP [2]; cycle 3 (1 cycle = 60 seconds), 1 μM Iso, 50 μM Fsk, 10 μM H89, 100 μM IBMX
  Average percent FRET response ± standard deviation, cycle 3: 21.59% ± 2.65%
cAMP [2]; cycle 4 (1 cycle = 60 seconds), 1 μM Iso, 50 μM Fsk, 10 μM H89, 100 μM IBMX
  Average percent FRET response ± standard deviation, cycle 4: 22.44% ± 2.42%
cAMP [2]; cycle 5 (1 cycle = 60 seconds), 1 μM Iso, 50 μM Fsk, 10 μM H89, 100 μM IBMX
  Average percent FRET response ± standard deviation, cycle 5: 21.47% ± 2.92%
cAMP [2]; cycle 6 (1 cycle = 60 seconds), 1 μM Iso, 50 μM Fsk, 10 μM H89, 100 μM IBMX
  Average percent FRET response ± standard deviation, cycle 6: 19.64% ± 1.73
cAMP [2]; cycle 7 (1 cycle = 60 seconds), 1 μM Iso, 50 μM Fsk, 10 μM H89, 100 μM IBMX
  Average percent FRET response ± standard deviation, cycle 7: 17.36% ± 1.28%
cAMP [2]; cycle 8 (1 cycle = 60 seconds), 1 μM Iso, 50 μM Fsk, 10 μM H89, 100 μM IBMX
  Average percent FRET response ± standard deviation, cycle 8: 15.93% ± 2.0%
cAMP [2]; cycle 9 (1 cycle = 60 seconds), 1 μM Iso, 50 μM Fsk, 10 μM H89, 100 μM IBMX
  Average percent FRET response ± standard deviation, cycle 9: 14.45% ± 3.55%
cAMP [2]; cycle 10 (1 cycle = 60 seconds), 1 μM Iso, 50 μM Fsk, 10 μM H89, 100 μM IBMX
  Average percent FRET response ± standard deviation, cycle 10: 11.07% ± 2.19%
cAMP [2]; cycle 11 (1 cycle = 60 seconds), 1 μM Iso, 50 μM Fsk, 10 μM H89, 100 μM IBMX
  Average percent FRET response ± standard deviation, cycle 11: 6.94% ± 1.93
cAMP [2]; cycle 12 (1 cycle = 60 seconds), 1 μM Iso, 50 μM Fsk, 10 μM H89, 100 μM IBMX
  Average percent FRET response ± standard deviation, cycle 12: 2.26% ± 5.45%
cAMP [2]; cycle 13 (1 cycle = 60 seconds), 1 μM Iso, 50 μM Fsk, 10 μM H89, 100 μM IBMX
  Average percent FRET response ± standard deviation, cycle 13: 2.47% ± 6.06%
cAMP [2]; cycle 14 (1 cycle = 60 seconds), 1 μM Iso, 50 μM Fsk, 10 μM H89, 100 μM IBMX
  Average percent FRET response ± standard deviation, cycle 14: 2.27% ± 3.37%
cAMP [2]; cycle 15 (1 cycle = 60 seconds), 1 μM Iso, 50 μM Fsk, 10 μM H89, 100 μM IBMX
  Average percent FRET response ± standard deviation, cycle 15: 1.80% ± 5.84%
cAMP [2]; cycle 16 (1 cycle = 60 seconds), 1 μM Iso, 50 μM Fsk, 10 μM H89, 100 μM IBMX
  Average percent FRET response ± standard deviation, cycle 16: 1.05% ± 5.87%
cAMP [2]; cycle 17 (1 cycle = 60 seconds), 1 μM Iso, 50 μM Fsk, 10 μM H89, 100 μM IBMX
  Average percent FRET response ± standard deviation, cycle 17: 1.29% ± 2.72%
cAMP [2]; cycle 18 (1 cycle = 60 seconds), 1 μM Iso, 50 μM Fsk, 10 μM H89, 100 μM IBMX
  Average percent FRET response ± standard deviation, cycle 18: 1.68% ± 6.12%
cAMP [2]; cycle 19 (1 cycle = 60 seconds), 1 μM Iso, 50 μM Fsk, 10 μM H89, 100 μM IBMX
  Average percent FRET response ± standard deviation, cycle 19: 2.52% ± 3.54%
cAMP [2]; cycle 20 (1 cycle = 60 seconds), 1 μM Iso, 50 μM Fsk, 10 μM H89, 100 μM IBMX
  Average percent FRET response ± standard deviation, cycle 20: 0.93% ± 4.45%
cAMP [3]; 10 μM PGE1
  time to plateau / maximal change in emission ratio: 1.5 to 3 min
cAMP [3]; 10 μM PGE1, 300 μM 8-pCPT-2′-O-Me-cAMP, average ± S.E.M
  increase in the ratio of cyan to yellow emissions (FRET response): 16.8%±1.0
